pIC50: −log10 of the molar value. In brackets after ≈: the same amount, converted by molar mass.
Legend:
[1] = Aqueous solubility of the compound at 20 degC; assay type: physicochemical; details: water
[2] = tested on: A549; assay: Cytotoxicity against human A549 cells after 72 hrs by CCK-8 assay; assay type: functional, cell-based; details: A549, 72 h
[3] = Cytotoxicity against human HCC827 cells after 72 hrs by CCK-8 assay; assay type: functional, cell-based; details: HCC827, 72 h
[4] = target: Epidermal growth factor receptor (Homo sapiens, UniProt P00533); assay: Inhibition of wild type EGFR (unknown origin) after 24 hrs by fluorescence assay
Epidermal growth factor receptor, sequence (P00533 whole entry): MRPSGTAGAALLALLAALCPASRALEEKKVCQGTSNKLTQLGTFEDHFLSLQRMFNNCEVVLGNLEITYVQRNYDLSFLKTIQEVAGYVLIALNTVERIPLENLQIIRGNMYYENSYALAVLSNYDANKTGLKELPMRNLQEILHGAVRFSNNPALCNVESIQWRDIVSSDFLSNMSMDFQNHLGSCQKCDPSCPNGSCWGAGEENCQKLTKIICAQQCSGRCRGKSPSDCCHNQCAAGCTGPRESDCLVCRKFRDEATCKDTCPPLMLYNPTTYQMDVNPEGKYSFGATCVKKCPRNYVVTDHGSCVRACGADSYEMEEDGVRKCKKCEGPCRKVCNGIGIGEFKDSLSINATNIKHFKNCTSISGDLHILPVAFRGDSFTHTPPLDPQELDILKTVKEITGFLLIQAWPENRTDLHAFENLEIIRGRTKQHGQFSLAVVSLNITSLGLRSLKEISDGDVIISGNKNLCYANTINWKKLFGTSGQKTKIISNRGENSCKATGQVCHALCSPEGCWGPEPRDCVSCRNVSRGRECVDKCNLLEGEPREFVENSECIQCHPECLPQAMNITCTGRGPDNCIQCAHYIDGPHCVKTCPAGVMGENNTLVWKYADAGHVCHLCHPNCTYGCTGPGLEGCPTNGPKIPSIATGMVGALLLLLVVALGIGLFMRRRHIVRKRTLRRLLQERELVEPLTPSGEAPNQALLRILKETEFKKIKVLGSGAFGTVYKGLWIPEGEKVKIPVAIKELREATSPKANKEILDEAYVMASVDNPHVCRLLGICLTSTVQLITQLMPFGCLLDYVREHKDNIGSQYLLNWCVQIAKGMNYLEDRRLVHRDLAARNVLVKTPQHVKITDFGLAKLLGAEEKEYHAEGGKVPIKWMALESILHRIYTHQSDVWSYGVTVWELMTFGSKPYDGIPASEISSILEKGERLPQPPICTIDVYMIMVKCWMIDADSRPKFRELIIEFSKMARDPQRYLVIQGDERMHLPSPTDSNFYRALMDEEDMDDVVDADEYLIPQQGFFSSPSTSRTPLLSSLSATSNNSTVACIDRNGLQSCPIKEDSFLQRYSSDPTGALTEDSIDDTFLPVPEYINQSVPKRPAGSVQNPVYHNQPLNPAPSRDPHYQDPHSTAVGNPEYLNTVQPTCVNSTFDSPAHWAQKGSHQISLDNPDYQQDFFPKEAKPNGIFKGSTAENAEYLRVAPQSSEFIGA

Row | Compound | solubility [1] [µg/mL] | pIC50 [2] | pIC50 [3] | pIC50 [4]
1 | COc1cc2ncnc(Nc3ccc(F)c(Cl)c3)c2cc1OCCCN1CCC2(COC2)C1 | 33.8 (≈ 71.5 µM) | < 4.30 | 7.55 | 
2 | COc1cc2ncnc(Nc3ccc(F)c(Cl)c3)c2cc1OCCN1CC(OC)C1 |  | < 4.30 | 7.19 | 7.03
3 | COc1cc2ncnc(Nc3ccc(F)c(Cl)c3)c2cc1OCCN1CC(O)C1 |  | < 4.30 | 6.94 | 7.59
4 | COc1cc2ncnc(Nc3ccc(F)c(Cl)c3)c2cc1OCCN1CC2(CCO2)C1 | < 1 | < 4.30 | 7.64 | 6.72
5 | COc1cc2ncnc(Nc3ccc(F)c(Cl)c3)c2cc1OCCCN1CC(OC)C1 |  | 4.60 | 7.38 | 7.47
6 | COc1cc2ncnc(Nc3ccc(F)c(Cl)c3)c2cc1OCCN1CC2(COC2)C1 | 1.4 (≈ 3.15 µM) | < 4.30 | 7.80 | 7.80
7 | COc1cc2ncnc(Nc3ccc(F)c(Cl)c3)c2cc1OCCN1CC2(C1)CS(=O)(=O)C2 | < 1 | < 4.30 | 6.81 | 6.80
8 | COc1cc2ncnc(Nc3ccc(F)c(Cl)c3)c2cc1OCCCN1CC2(CSC2)C1 | 25.6 (≈ 53.9 µM) | 5.02 | 7.30 | 7.32
9 | COc1cc2ncnc(Nc3ccc(F)c(Cl)c3)c2cc1OCCCN1CC(O)C1 |  | < 4.30 | 6.45 | 7.60
10 | COc1cc2ncnc(Nc3ccc(F)c(Cl)c3)c2cc1OCCN1CC2(CSC2)C1 | < 1 | 5.32 | 7.29 | 7.28
11 | COc1cc2ncnc(Nc3ccc(F)c(Cl)c3)c2cc1OCCCN1CC2(CCO2)C1 | 1.2 (≈ 2.61 µM) | 4.59 | 7.41 | 7.44
12 | COc1cc2ncnc(Nc3ccc(F)c(Cl)c3)c2cc1OCCCN1CCOCC1 [GEFITINIB] | 2.1 (≈ 4.7 µM) |  |  | 
13 | COc1cc2ncnc(Nc3ccc(F)c(Cl)c3)c2cc1OCCCN1CC2(COC2)C1 | 28.3 (≈ 61.7 µM) | 4.50 | 7.16 | 7.25
14 | COc1cc2ncnc(Nc3ccc(F)c(Cl)c3)c2cc1OCCCN1CC2(C1)CS(=O)(=O)C2 | 72.3 (≈ 143 µM) | 4.60 | 6.41 | 7.62

Source: ChEMBL document CHEMBL2424588, “Four-membered heterocycles-containing 4-anilino-quinazoline derivatives as epidermal growth factor receptor (EGFR) kinase inhibitors” (Bioorg Med Chem Lett, 2013)
